Assay results as given in PubChem BioAssay (NCI).
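48-hour exposure; five concentrations; linearly interpolated endpoints. At the GI50, growth is halved. At the TGI there is no net growth.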

Legend:
Experiment in all cases: growth of human tumour cells (NCI), 48 h
SF-539 CNS = system: SF-539 CNS
SF-295 CNS = system: SF-295 CNS
HT29 colon = system: HT29 colon
SN12C renal = system: SN12C renal
OVCAR-4 ovarian = system: OVCAR-4 ovarian
RPMI-8226 leukemia = system: RPMI-8226 leukemia
HOP-62 NSCLC = system: HOP-62 NSCLC
SNB-75 CNS = system: SNB-75 CNS
MCF7 breast = system: MCF7 breast
DU-145 prostate = system: DU-145 prostate

Row | Compound | GI50 (SF-539 CNS) | TGI (SF-539 CNS) | GI50 (SF-295 CNS) | TGI (SF-295 CNS) | GI50 (HT29 colon) | TGI (HT29 colon) | GI50 (SN12C renal) | TGI (SN12C renal) | GI50 (OVCAR-4 ovarian) | TGI (OVCAR-4 ovarian) | GI50 (RPMI-8226 leukemia) | TGI (RPMI-8226 leukemia) | GI50 (HOP-62 NSCLC) | TGI (HOP-62 NSCLC) | GI50 (SNB-75 CNS) | TGI (SNB-75 CNS) | GI50 (MCF7 breast) | TGI (MCF7 breast) | GI50 (DU-145 prostate) | TGI (DU-145 prostate)
1 | OCC(O)CC[CH2][Sn]([Br])([c]1ccccc1)[c]1ccccc1 (configuration not stated) | > 100 µM | > 100 µM | > 100 µM | > 100 µM | > 100 µM | > 100 µM | > 100 µM | > 100 µM | > 100 µM | > 100 µM | > 100 µM | > 100 µM | > 100 µM | > 100 µM | > 100 µM | > 100 µM | – | – | – | –
2 | CC1=NN(C(=O)Nc2ccccc2)C(=O)C2CCC(=O)N12 (configuration not stated) | – | > 100 µM | – | > 100 µM | – | – | – | > 100 µM | – | > 100 µM | – | > 100 µM | – | > 100 µM | – | > 100 µM | – | – | – | –
3 | Nc1nc(Cl)c2ncn(Cc3ccc(C45CC6CC(CC(C6)C4)C5)c(O)c3)c2n1 | 11.8 µM | 26.7 µM | 3.29 µM | 17.4 µM | 4.04 µM | 46.7 µM | 2.95 µM | 13.4 µM | 0.991 µM | 3.82 µM | – | – | 1.85 µM | 3.77 µM | 3.88 µM | 28.9 µM | 3.14 µM | 13 µM | 3.14 µM | 11.8 µM
4 | [Cl-].[Dy+3].[O-]/N=C(\c1ccccc1)c1ccccn1.[O-]/N=C(\c1ccccc1)c1ccccn1.[O-]/N=C(\c1ccccc1)c1ccccn1 | 25.5 µM | 64.3 µM | 20.9 µM | 68.8 µM | 45.9 µM | > 100 µM | 46.4 µM | > 100 µM | 44.3 µM | > 100 µM | 45.1 µM | > 100 µM | 24.7 µM | > 100 µM | 3.54 µM | 22.1 µM | – | – | – | –
5 | O=C1CCC2(c3ccc(F)cc3)Nc3cc(Cl)ccc3N12 (configuration not stated) | – | > 100 µM | – | > 100 µM | – | > 100 µM | – | > 100 µM | – | > 100 µM | – | > 100 µM | – | > 100 µM | – | > 100 µM | – | – | – | –
6 | C/C(CC(=O)Nc1ccc(C)cc1C)=N/N=C(N)N | – | > 100 µM | – | > 100 µM | – | > 100 µM | – | – | – | – | – | > 100 µM | – | > 100 µM | – | > 100 µM | – | – | – | –
7 | O=C1O[C@@H](c2ccc3c(c2)OCO3)C2C(=O)O[C@@H](c3ccc4c(c3)OCO4)C12 (some centres not stated) | – | > 100 µM | – | > 100 µM | – | > 100 µM | – | > 100 µM | – | > 100 µM | – | > 100 µM | – | > 100 µM | – | > 100 µM | – | – | – | –
8 | NC(=O)C(=O)N/N=C(\CC1(O)C(=O)Nc2ccccc21)c1ccc2ccccc2c1 (configuration not stated) | – | > 100 µM | – | > 100 µM | – | > 100 µM | – | 60.5 µM | – | > 100 µM | – | 86.3 µM | – | > 100 µM | – | > 100 µM | – | – | – | –
9 | O=C1/C(=C/c2ccccc2)CNC/C1=C\c1ccccc1 | – | 3.46 µM | – | 5.25 µM | – | 3.13 µM | – | 3.28 µM | – | 2.9 µM | – | 0.787 µM | – | 7.46 µM | – | 11.6 µM | – | – | – | –
10 | O=c1c2cc([N+](=O)[O-])ccc2sc2ccsc12 | – | > 100 µM | – | > 100 µM | – | > 100 µM | – | > 100 µM | – | > 100 µM | – | > 100 µM | – | > 100 µM | – | > 100 µM | – | – | – | –
11 | CC(C)(CC(=O)Nc1ccccc1)C(=O)O | – | > 100 µM | – | > 100 µM | – | > 100 µM | – | > 100 µM | – | > 100 µM | – | > 100 µM | – | > 100 µM | – | – | – | > 100 µM | – | > 100 µM
